Patent US20240158446A1, “CYCLIC COMPOUND HAVING SELECTIVE INHIBITORY ACTION ON KRAS OVER HRAS AND NRAS” (CHUGAI SEIYAKU KABUSHIKI KAISHA, priority 2021, published 2024)
Where two headings read alike, the source gives them in different places.

Key:
[1] = molecular target: GDP-bound KRAS wild-type protein (Homo sapiens, UniProt P01116); experiment: Binding to KRAS by surface plasmon resonance (SPR), Single Cycle Kinetics; conditions: GDP-bound KRAS wild-type protein, read-out: KRAS KD
[2] = molecular target: GDP-bound NRAS wild-type protein (Homo sapiens, UniProt P01111); experiment: Binding to NRAS by surface plasmon resonance (SPR), Single Cycle Kinetics; conditions: for NRAS/KRAS (ratio of KD value for NRAS to KD value for KRAS): SPR, GDP-bound NRAS wild-type protein vs GDP-bound KRAS wild-type protein; for NRAS/KRAS (ratio of KD value with respect to GDP-bound NRAS wild-type protein to KD value with respect to KRAS): SPR KD ratio NRAS/KRAS, class symbols
[3] = molecular target: GDP-bound HRAS wild-type protein (Homo sapiens, UniProt P01112); experiment: Binding to HRAS by surface plasmon resonance (SPR), Single Cycle Kinetics; conditions: for HRAS/KRAS (ratio of KD value for HRAS to KD value for KRAS): SPR, GDP-bound HRAS wild-type protein vs GDP-bound KRAS wild-type protein; for HRAS/KRAS (ratio of KD value with respect to GDP-bound HRAS wild-type protein to KD value with respect to KRAS): SPR KD ratio HRAS/KRAS, class symbols
[4] = test system: human lung cancer strain NCI-H441;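 further: cell proliferation inhibition after four days measured by CellTiter-Glo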
[5] = SPR Single Cycle Kinetics, 1:1 binding model
[6] = SPR, Single Cycle Kinetics, 1:1 binding model

Chain of GDP-bound HRAS wild-type protein (P01112 whole entry): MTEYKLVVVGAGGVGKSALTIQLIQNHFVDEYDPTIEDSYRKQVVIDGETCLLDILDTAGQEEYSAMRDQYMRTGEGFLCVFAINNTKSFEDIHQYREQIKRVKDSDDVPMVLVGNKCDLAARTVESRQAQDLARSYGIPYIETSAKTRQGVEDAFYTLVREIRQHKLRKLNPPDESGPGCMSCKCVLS
Chain of GDP-bound KRAS wild-type protein (P01116 whole entry): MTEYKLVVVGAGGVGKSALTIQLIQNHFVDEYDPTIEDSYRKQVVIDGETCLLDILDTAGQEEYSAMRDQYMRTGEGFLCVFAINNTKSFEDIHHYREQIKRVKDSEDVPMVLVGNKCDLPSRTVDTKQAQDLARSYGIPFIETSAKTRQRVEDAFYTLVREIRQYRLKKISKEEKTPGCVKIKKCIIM
Chain of GDP-bound NRAS wild-type protein (P01111 whole entry): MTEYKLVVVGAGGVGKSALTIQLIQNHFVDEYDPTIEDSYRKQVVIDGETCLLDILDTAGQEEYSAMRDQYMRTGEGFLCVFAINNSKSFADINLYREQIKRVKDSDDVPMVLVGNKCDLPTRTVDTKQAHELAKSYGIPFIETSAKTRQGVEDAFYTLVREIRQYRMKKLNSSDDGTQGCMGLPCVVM

SMILES | Kd ([1]; SPR, Single Cycle Kinetics) [nM] | IC50 [4] [nM] | Kd [1, 5] [nM] | Kd [1, 6] [nM] | NRAS/KRAS (ratio of KD value for NRAS to KD value for KRAS) [2] | HRAS/KRAS (ratio of KD value for HRAS to KD value for KRAS) [3] | NRAS/KRAS (ratio of KD value with respect to GDP-bound NRAS wild-type protein to KD value with respect to KRAS) [2] | HRAS/KRAS (ratio of KD value with respect to GDP-bound HRAS wild-type protein to KD value with respect to KRAS) [3] | NRAS/KRAS (ratio of KD value for NRAS to KD value for KRAS) ([2]; KD ratio class) | HRAS/KRAS (ratio of KD value for HRAS to KD value for KRAS) ([3]; KD ratio class)
CC[C@H](C)[C@@H]1NC(=O)[C@@H]2CCC/C=C/c3ccc(cc3)C[C@@H](C(=O)N(C)CC(=O)N[C@@H](CCc3ccc(Cl)c(Cl)c3)C(=O)N3C[C@H](OC4CCC4)C[C@H]3C(=O)NC3(CC(C)(C)C3)C(=O)N(C)[C@@H](C3CCCC3)C(=O)N(C)[C@H](C(=O)N(C)CC)CC(=O)N2C)N2CC/C=C\C[C@@H](C2=O)N(C)C(=O)CN(C)C1=O [PP3058] | 0.21 | 21.2 | – | – | A (a compound having 10 or more and less than 20 is denoted as A) | A (a compound having 10 or more and less than 20 is denoted as A) | – | – | – | –
CCC(CC)[C@H]1C(=O)N(C)[C@H](C(=O)N(C)C)CC(=O)N(C)[C@@H](COC)C(=O)N[C@@H]([C@@H](C)CC)C(=O)N(C)CC(=O)N(C)[C@H]2C/C=C\CCN(C2=O)[C@@H](CC2CCC(F)(F)CC2)C(=O)N(C)CC(=O)N[C@@H](CCc2cc(F)c(C(F)(F)F)c(F)c2)C(=O)N2C[C@@H](C)C[C@H]2C(=O)NC2(CC(C)(C)C2)C(=O)N1C [PP2448] | 1.4 | 26.9 | – | – | A (a compound having 10 or more and less than 20 is denoted as A) | A (a compound having 10 or more and less than 20 is denoted as A) | – | – | – | –
CCC[C@H]1C(=O)N[C@@H](CC(C)C)C(=O)N(CCOC)CC(=O)N(C)[C@H]2C/C=C\CCN(C2=O)[C@@H](Cc2ccc(C)cc2)C(=O)N(C)CC(=O)N[C@@H](CCc2ccc(C(F)(F)F)c(OC)c2)C(=O)N2C[C@H](OCC)C[C@H]2C(=O)NC2(CCC2)C(=O)N(C)[C@@H](C2CCCC2)C(=O)N(C)[C@H](C(=O)N(C)C)CC(=O)N1C [PP2542] | – | 394 | 4.6 | – | – | – | B (a compound having 3 or more and less than 10 is denoted as B) | B (a compound having 3 or more and less than 10 is denoted as B) | – | –
CCCOC[C@H]1C(=O)N[C@@H]([C@@H](C)CC)C(=O)N(C)CC(=O)N(C)[C@H]2C/C=C\CCN(C2=O)[C@@H](Cc2ccc(C)cc2)C(=O)N(C)CC(=O)N[C@@H](CCc2cc(F)c(C(F)(F)F)c(F)c2)C(=O)N2C[C@H](OCC)C[C@H]2C(=O)NC2(CC(C)(C)C2)C(=O)N(C)[C@@H](C2CCCC2)C(=O)N(C)[C@H](C(=O)N(C)C)CC(=O)N1C [PP1400, (2S,8S,12R,14S,20S,23S,27S,30S,36S,38Z)-20-cyclopentyl-8-[2-[3,5-difluoro-4-(trifluoromethyl)phenyl]ethyl]-12-ethoxy-N,N,3′,3′,4,19,22,26,32,35-decamethyl-30-[(1S)-1-methylpropyl]-3,6,9,15,18,21,25,28,31,34,42-undecaoxo-27-(propoxymethyl)-2-(p-tolylmethyl)spiro[1,4,7,10,16,19,22,26,29,32,35-undecazatricyclo[34.5.1.0^10,14]dotetracont-38-ene-17,1′-cyclobutane]-23-carboxamide] | – | 5.1 | – | 0.049 | – | – | – | – | A (a compound having 10 or more and less than 20 is denoted as A) | B (a compound having 3 or more and less than 10 is denoted as B)
CCO[C@@H]1C[C@H]2C(=O)NC3(CCC3)C(=O)N(C)[C@@H](C3CCCC3)C(=O)N(C)[C@H](C(=O)N(C)C)CC(=O)N(C)[C@@H](CC(C)C)C(=O)N[C@@H]([C@@H](C)CC)C(=O)N(C)CC(=O)N(C)[C@H]3C/C=C\CCN(C3=O)[C@@H](Cc3ccc(F)cc3)C(=O)N(C)CC(=O)N[C@@H](CCc3cc(F)c(Cl)c(F)c3)C(=O)N2C1 [PP1483] | – | 90.3 | – | 0.51 | – | – | – | – | A (a compound having 10 or more and less than 20 is denoted as A) | B (a compound having 3 or more and less than 10 is denoted as B)
CCO[C@@H]1C[C@H]2C(=O)NC3(CCC3)C(=O)N(C)[C@@H](C3CCCC3)C(=O)N(C)[C@H](C(=O)N3CCC3)CC(=O)N(C)[C@@H](CC)C(=O)N[C@@H]([C@@H](C)CC)C(=O)N(C)CC(=O)N(C)[C@H]3C/C=C\CCN(C3=O)[C@@H](CC3CCC(F)(F)CC3)C(=O)N(C)CC(=O)N[C@@H](CCc3cc(F)c(C(F)(F)F)c(F)c3)C(=O)N2C1 [PP1444] | – | 103 | – | 0.19 | – | – | – | – | A (a compound having 10 or more and less than 20 is denoted as A) | A (a compound having 10 or more and less than 20 is denoted as A)
CCC[C@H]1C(=O)N[C@@H](CC(C)C)C(=O)N(C2CC2)CC(=O)N(C)[C@H]2C/C=C\CCN(C2=O)[C@@H](Cc2ccc(C)cc2)C(=O)N(C)CC(=O)N[C@@H](CCc2cc(F)c(C(F)(F)F)c(F)c2)C(=O)N2C[C@H](OCC)C[C@H]2C(=O)NC2(CC(C)(C)C2)C(=O)N(C)[C@@H](C2CCCC2)C(=O)N(C)[C@H](C(=O)N(C)C)CC(=O)N1C [PP2508] | 3.4 | 124 | – | – | A (a compound having 10 or more and less than 20 is denoted as A) | B (a compound having 3 or more and less than 10 is denoted as B) | – | – | – | –
C#CCN1CC(=O)N(C)[C@H]2C/C=C\CCN(C2=O)[C@@H](Cc2ccc(C)cc2)C(=O)N(C)CC(=O)N[C@@H](CCc2ccc(C(F)(F)F)c(Cl)c2)C(=O)N2C[C@H](OCC)C[C@H]2C(=O)NC2(CC(C)(C)C2)C(=O)N(C)[C@@H](C2CCCC2)C(=O)N(C)[C@H](C(=O)N(C)C)CC(=O)N(C)[C@@H](CCC)C(=O)N[C@@H](CC(C)C)C1=O [PP2526] | – | 54.5 | 4 | – | – | – | A (a compound having 10 or more and less than 20 is denoted as A) | B (a compound having 3 or more and less than 10 is denoted as B) | – | –

Continued, in another order:

Kd ([1]; SPR, Single Cycle Kinetics) [nM] | IC50 [4] [nM] | Kd [1, 5] [nM] | Kd [1, 6] [nM] | SMILES | NRAS/KRAS (ratio of KD value for NRAS to KD value for KRAS) [2] | HRAS/KRAS (ratio of KD value for HRAS to KD value for KRAS) [3] | NRAS/KRAS (ratio of KD value with respect to GDP-bound NRAS wild-type protein to KD value with respect to KRAS) [2] | HRAS/KRAS (ratio of KD value with respect to GDP-bound HRAS wild-type protein to KD value with respect to KRAS) [3] | NRAS/KRAS (ratio of KD value for NRAS to KD value for KRAS) ([2]; KD ratio class) | HRAS/KRAS (ratio of KD value for HRAS to KD value for KRAS) ([3]; KD ratio class)
– | 271 | 5.6 | – | CCC[C@H]1C(=O)N[C@@H](CC(C)C)C(=O)N2C[C@@H](OC)C[C@H]2C(=O)N(C)[C@H]2C/C=C\CCN(C2=O)[C@@H](Cc2ccc(C)cc2)C(=O)N(C)CC(=O)N[C@@H](CCc2ccc(C(F)(F)F)c(OC)c2)C(=O)N2C[C@H](OCC)C[C@H]2C(=O)NC2(CC(C)(C)C2)C(=O)N(C)[C@@H](C2CCCC2)C(=O)N(C)[C@H](C(=O)N(C)C)CC(=O)N1C [PP2554] | – | – | A (a compound having 10 or more and less than 20 is denoted as A) | B (a compound having 3 or more and less than 10 is denoted as B) | – | –
– | 9.4 | 0.21 | – | CCC[C@H]1C(=O)N[C@@H]([C@@H](C)CC)C(=O)N2C[C@@H](OC)C[C@H]2C(=O)N(C)[C@H]2C/C=C\CCN(C2=O)[C@@H](Cc2ccc(C)cc2)C(=O)N(C)CC(=O)N[C@@H](CCc2cc(F)c(C(F)(F)F)c(F)c2)C(=O)N2C[C@H](OCC)C[C@H]2C(=O)NC2(CC(C)(C)C2)C(=O)N(C)[C@@H](C2CCCC2)C(=O)N(C)[C@H](C(=O)N(C)C)CC(=O)N1C [PP2556] | – | – | A (a compound having 10 or more and less than 20 is denoted as A) | B (a compound having 3 or more and less than 10 is denoted as B) | – | –
– | 62.5 | – | 0.42 | CCO[C@@H]1C[C@H]2C(=O)NC3(CCC3)C(=O)N(C)[C@@H](C3CCCC3)C(=O)N(C)[C@H](C)CC(=O)N(C)[C@@H](CC3CCCC3)C(=O)N[C@@H]([C@@H](C)CC)C(=O)N(C)CC(=O)N(C)[C@H]3C/C=C\CCN(C3=O)[C@@H](Cc3ccc(C)cc3)C(=O)N(C)CC(=O)N[C@@H](CCc3cc(F)c(C(F)(F)F)c(F)c3)C(=O)N2C1 [PP1413] | – | – | – | – | B (a compound having 3 or more and less than 10 is denoted as B) | B (a compound having 3 or more and less than 10 is denoted as B)
– | 84.1 | 1.4 | – | CCC[C@H]1C(=O)N[C@@H]([C@@H](C)CC)C(=O)N2CCC[C@H]2C(=O)N(C)[C@H]2C/C=C\CCN(C2=O)[C@@H](Cc2ccc(C(F)F)cc2)C(=O)N(C)CC(=O)N[C@@H](CCc2ccc(Cl)c(Cl)c2)C(=O)N2C[C@H](OC(C)C)C[C@H]2C(=O)NC2(CC(C)(C)C2)C(=O)N(C)[C@@H](C(CC)CC)C(=O)N(C)[C@H](C(=O)N(C)C)CC(=O)N1C [PP2640] | – | – | AA (a compound having 20 or more is denoted as AA) | A (a compound having 10 or more and less than 20 is denoted as A) | – | –
